# Experimental data as given in ChEMBL document CHEMBL4190178 (Medchemcomm, 2016).
# The source made the active and inactive calls. The calls are words filed in the database; no cut-off is given here.
# Tests used:
# [1] = biological target: T1, Alpha-1A adrenergic receptor (Homo sapiens) (UniProt P35348); assay: Antagonist activity at human alpha1A adrenergic receptor expressed in Chem1 cells assessed as decrease in epinephrine-induced calcium mobilization by measuring relative fluorescence unit at 10 uM by fluoforte dye based fluorescence assay relative to epinephrine; assay type: functional, cell-based
# T1 sequence (whole entry): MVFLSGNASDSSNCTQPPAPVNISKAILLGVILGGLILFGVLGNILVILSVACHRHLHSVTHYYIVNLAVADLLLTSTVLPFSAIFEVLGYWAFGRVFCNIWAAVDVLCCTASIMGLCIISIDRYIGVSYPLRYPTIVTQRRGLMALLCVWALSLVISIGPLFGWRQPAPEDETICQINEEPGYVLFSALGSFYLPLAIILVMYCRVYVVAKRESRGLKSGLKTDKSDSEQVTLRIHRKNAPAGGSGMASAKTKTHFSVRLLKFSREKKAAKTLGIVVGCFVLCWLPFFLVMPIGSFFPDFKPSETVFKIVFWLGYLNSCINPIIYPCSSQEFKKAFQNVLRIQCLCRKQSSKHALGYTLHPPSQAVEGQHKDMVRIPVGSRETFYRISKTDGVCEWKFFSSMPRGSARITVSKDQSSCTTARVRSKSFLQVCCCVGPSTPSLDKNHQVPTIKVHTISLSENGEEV
# LNCaP [2] = assay: Cytotoxicity against human LNCAP cells assessed as reduction in cell viability after 24 hrs by MTT assay; assay type: functional, cell-based
# LNCaP [3] = assay: Antiproliferative activity against human LNCAP cells assessed as decrease in cell viability after 24 hrs by MTT assay; assay type: functional, cell-based
# DU-145 = assay: Antiproliferative activity against human DU145 cells assessed as decrease in cell viability after 24 hrs by MTT assay; assay type: functional, cell-based; settings: DU-145, 24 h
# PC-3 = assay: Antiproliferative activity against human PC3 cells assessed as decrease in cell viability after 24 hrs by MTT assay; assay type: functional, cell-based; settings: PC-3, 24 h
# [4] = biological target: T2, Androgen receptor (Homo sapiens) (UniProt P10275); assay: Antagonist activity at androgen receptor in human LNCAP cells assessed as decrease in testosterone-induced PSA expression levels at 10 uM after 24 hrs by Western blot analysis; assay type: cell-based
# T2 sequence (whole entry): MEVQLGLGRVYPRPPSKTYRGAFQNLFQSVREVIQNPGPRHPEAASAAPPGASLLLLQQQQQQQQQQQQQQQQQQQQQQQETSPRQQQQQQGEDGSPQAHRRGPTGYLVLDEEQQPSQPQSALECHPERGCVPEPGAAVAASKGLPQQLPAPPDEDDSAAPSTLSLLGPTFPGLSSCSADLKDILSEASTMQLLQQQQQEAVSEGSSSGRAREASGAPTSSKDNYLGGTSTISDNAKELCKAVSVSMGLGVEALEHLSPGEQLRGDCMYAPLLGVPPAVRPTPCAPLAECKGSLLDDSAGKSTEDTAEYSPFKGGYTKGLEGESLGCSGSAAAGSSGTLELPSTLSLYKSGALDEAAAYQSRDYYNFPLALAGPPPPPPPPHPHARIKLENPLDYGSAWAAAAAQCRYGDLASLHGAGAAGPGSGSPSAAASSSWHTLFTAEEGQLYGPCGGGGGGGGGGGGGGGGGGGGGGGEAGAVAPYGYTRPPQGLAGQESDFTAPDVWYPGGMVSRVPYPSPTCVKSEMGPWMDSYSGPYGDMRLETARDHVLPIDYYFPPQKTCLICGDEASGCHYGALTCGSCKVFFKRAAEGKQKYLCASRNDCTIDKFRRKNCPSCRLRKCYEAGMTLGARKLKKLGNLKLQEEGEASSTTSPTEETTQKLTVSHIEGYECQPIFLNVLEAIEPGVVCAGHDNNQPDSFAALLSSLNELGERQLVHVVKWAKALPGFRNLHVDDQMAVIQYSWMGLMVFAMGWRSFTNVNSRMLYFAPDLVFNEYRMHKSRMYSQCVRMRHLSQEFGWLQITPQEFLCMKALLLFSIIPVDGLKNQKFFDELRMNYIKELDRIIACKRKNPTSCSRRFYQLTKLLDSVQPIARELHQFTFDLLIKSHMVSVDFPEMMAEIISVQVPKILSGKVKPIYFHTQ
# [5] = biological target: T1, Alpha-1A adrenergic receptor (Homo sapiens); assay: Antagonist activity at human alpha1A adrenergic receptor expressed in Chem1 cells assessed as decrease in epinephrine-induced calcium mobilization by measuring relative fluorescence unit at 1 uM by fluoforte dye based fluorescence assay relative to epinephrine; assay type: functional, cell-based
# [6] = AUClast in Sprague-Dawley rat serum at 10 mg/kg, po administered as single dose by LC-MS/MS analysis; assay type: ADME, organism-based; parameters: dose 10 mg/kg, route oral, time 0 - last
# Rattus norvegicus [7] = assay: Toxicity in benign prostatic hyperplasia Sprague-Dawley rat model assessed as effect on seminal vesicle weight at 10 mg/kg, po qd co-administered with citral for 21 days starting post 8 days of citral alone treatment; assay type: organism-based; settings: in vivo
# Rattus norvegicus [8] = assay: (§1) Anti-androgenic activity in citral-induced benign prostatic hyperplasia Sprague-Dawley rat model assessed as reduction in stromal component at 10 mg/kg, po qd co-administered with citral for 21 days starting post 8 days of citral alone treatment by hematoxyline and eosin staining based light microscopic analysis; assay type: functional, organism-based
# [9] = Apparent clearance in Sprague-Dawley rat hypothalamus at 10 mg/kg, po administered as single dose by LC-MS/MS analysis; assay type: ADME, organism-based; settings: in vivo
# [10] = Tmax in Sprague-Dawley rat serum at 10 mg/kg, po administered as single dose by LC-MS/MS analysis; assay type: ADME, organism-based
# [11] = Cmax in Sprague-Dawley rat prostate at 10 mg/kg, po administered as single dose by LC-MS/MS analysis; assay type: ADME, organism-based, Prostate gland; parameters: dose 10 mg/kg, route oral
# Rattus norvegicus [12] = assay: as §1, with “tissue differentiation into stroma” for “stromal component”; assay type: functional, organism-based
# [13] = Apparent volume of distribution in Sprague-Dawley rat hypothalamus at 10 mg/kg, po administered as single dose by LC-MS/MS analysis; assay type: ADME, organism-based; settings: in vivo
# [14] = AUClast in Sprague-Dawley rat prostate at 10 mg/kg, po administered as single dose by LC-MS/MS analysis; assay type: ADME, organism-based, Prostate gland; settings: in vivo
# [15] = Apparent clearance in Sprague-Dawley rat prostate at 10 mg/kg, po administered as single dose by LC-MS/MS analysis; assay type: ADME, organism-based, Prostate gland; settings: in vivo
# [16] = Ratio of AUClast in Sprague-Dawley rat prostate to serum at 10 mg/kg, po administered as single dose by LC-MS/MS analysis; assay type: ADME, organism-based; settings: read-out: Ratio AUC
# [17] = Apparent clearance in Sprague-Dawley rat serum at 10 mg/kg, po administered as single dose by LC-MS/MS analysis; assay type: ADME, organism-based
# Rattus norvegicus [18] = assay: Anti-androgenic activity in benign prostatic hyperplasia Sprague-Dawley rat model assessed as reduction in citral-induced prostate weight at 10 mg/kg, po qd co-administered with citral for 21 days starting post 8 days of citral alone treatment; assay type: functional; parameters: scale not given: the % may be the effect or the level left
# [19] = biological target: T2, Androgen receptor (Homo sapiens); assay: Antagonist activity at human androgen receptor expressed in African green monkey COS7 cells at 7.5 uM after 24 hrs by ARE-dual luciferase reporter gene assay; assay type: cell-based
# [20] = Apparent volume of distribution in Sprague-Dawley rat prostate at 10 mg/kg, po administered as single dose by LC-MS/MS analysis; assay type: ADME, organism-based, Prostate gland; settings: in vivo
# [21] = AUClast in Sprague-Dawley rat hypothalamus at 10 mg/kg, po administered as single dose by LC-MS/MS analysis; assay type: ADME, organism-based; settings: in vivo
# Rattus norvegicus [22] = assay: Toxicity in benign prostatic hyperplasia Sprague-Dawley rat model assessed as effect on testis weight at 10 mg/kg, po qd co-administered with citral for 21 days starting post 8 days of citral alone treatment; assay type: organism-based; settings: in vivo
# [23] = Cmax in Sprague-Dawley rat hypothalamus at 10 mg/kg, po administered as single dose by LC-MS/MS analysis; assay type: ADME, organism-based; parameters: dose 10 mg/kg, route oral
# [24] = Apparent volume of distribution in Sprague-Dawley rat serum at 10 mg/kg, po administered as single dose by LC-MS/MS analysis; assay type: ADME, organism-based
# [25] = Tmax in Sprague-Dawley rat prostate at 10 mg/kg, po administered as single dose by LC-MS/MS analysis; assay type: ADME, organism-based, Prostate gland
# [26] = Cmax in Sprague-Dawley rat serum at 10 mg/kg, po administered as single dose by LC-MS/MS analysis; assay type: ADME, organism-based; parameters: dose 10 mg/kg, route oral
# [27] = Ratio of AUClast in Sprague-Dawley rat hypothalamus to serum at 10 mg/kg, po administered as single dose by LC-MS/MS analysis; assay type: ADME, organism-based; settings: read-out: Ratio AUC
# Rattus norvegicus [28] = assay: as §1, with “tissue differentiation into acinar compartments” for “stromal component”; assay type: functional, organism-based
# [29] = Tmax in Sprague-Dawley rat hypothalamus at 10 mg/kg, po administered as single dose by LC-MS/MS analysis; assay type: ADME, organism-based
# Rattus norvegicus [30] = assay: Toxicity in benign prostatic hyperplasia Sprague-Dawley rat model assessed as effect on epididymis weight at 10 mg/kg, po qd co-administered with citral for 21 days starting post 8 days of citral alone treatment; assay type: organism-based; settings: in vivo
structure (smiles),measurement,setting,value
COc1ccccc1N1CCN(C(=O)CCl)CC1,fold change (FC),[1],1.6
same,EC50,LNCaP [2],7.6 µM
same,EC50,LNCaP [3],7.6 µM
same,EC50,DU-145,> 80 µM
same,EC50,PC-3,> 80 µM
same,Activity,[4],Active
COc1ccccc1N1CCN(C(=O)CN2CCN(c3ccc([N+](=O)[O-])cc3)CC2)CC1,EC50,LNCaP [2],63.1 µM
O=C(CCl)N1CCN(c2ncccn2)CC1,EC50,LNCaP [2],71.3 µM
COc1ccccc1N1CCN(C(=O)CN2CCN(c3ccccn3)CC2)CC1,EC50,LNCaP [2],45.9 µM
O=C(CN1CCN(c2ncccn2)CC1)N1CCN(c2ncccn2)CC1,EC50,LNCaP [2],48.2 µM
COc1ccccc1N1CCN(C(=O)CN2CCN(c3ncccn3)CC2)CC1,EC50,LNCaP [2],48.2 µM
O=C(N1CCN(c2ccc([N+](=O)[O-])cc2)CC1)N1CCN(c2ccc(C(F)(F)F)cc2[N+](=O)[O-])CC1,EC50,LNCaP [2],> 80 µM
O=C(N1CCN(c2ccc([N+](=O)[O-])cc2)CC1)N1CCN(c2ccc([N+](=O)[O-])cc2C(F)(F)F)CC1,EC50,LNCaP [2],76.1 µM
CCOc1ccccc1OCCN[C@H](C)Cc1ccc(OC)c(S(N)(=O)=O)c1,fold change (FC),[5],1.6
O=C(N1CCN(c2ccc([N+](=O)[O-])cc2)CC1)N1CCN(c2ccccn2)CC1,EC50,LNCaP [2],69.5 µM
O=C(CN1CCN(c2ccc([N+](=O)[O-])cc2)CC1)N1CCN(c2ncccn2)CC1,EC50,LNCaP [2],67.9 µM
O=C(CN1CCN(c2ccc([N+](=O)[O-])cc2)CC1)N1CCN(c2ccc([N+](=O)[O-])cc2)CC1,AUC(0-t),[6],24100 ng·h/mL
same,Activity,Rattus norvegicus [7],Non-Toxic
same,Activity,Rattus norvegicus [8],Active
same,fold change (FC),[1],1.6
same,CL/F,[9],383.2 g/h/kg
same,EC50,LNCaP [2],11.2 µM
same,Tmax,[10],10 h
same,EC50,LNCaP [3],11.2 µM
same,Cmax,[11],2400 ng/g
same,Activity,Rattus norvegicus [12],Active
same,Vd/F,[13],3313.7 g/kg
same,AUClast,[14],37.3 µg·h/g
same,CL/F,[15],268.2 g/h/kg
same,Kp,[16],1.5
same,EC50,DU-145,> 80 µM
same,CL/F,[17],6.67 mL/min/kg
same,Activity,Rattus norvegicus [18],46.2%
same,Activity,[19],Active
same,Vd/F,[20],2311.9 g/kg
same,AUClast,[21],26.1 µg·h/g
same,Activity,Rattus norvegicus [22],Non-Toxic
same,Cmax,[23],1200 ng/g
same,EC50,PC-3,> 80 µM
same,Vd/F,[24],4.2 L/kg
same,Tmax,[25],10 h
same,Activity,[4],Active
same,Cmax,[26],1100 ng/mL
same,Kp,[27],1.1
same,Activity,Rattus norvegicus [28],Active
same,Tmax,[29],10 h
same,Activity,Rattus norvegicus [30],Non-Toxic
COc1ccccc1N1CCN(CC(=O)N2CCN(c3ncccn3)CC2)CC1,EC50,LNCaP [2],47.1 µM
